Patent publication US6358521B1, “Fermented milk nutraceuticals” (priority 1993, dated 2002)

System: purulent wound infected with Staphylococcus aureus
Test: Purulent skin-facial wound model infected with Staphylococcus aureus, topical treatment
Assay type: in vivo, Chinchilla rabbits
Method: The effect of topical administration of a fermented milk product prepared as described above was studied using 24 Chinchilla rabbits. Standard skin-facial wounds of about 2×2.5 cm (500 sq. mm) in size were inflicted in the back area of all the rabbits; a skin graft was dissected with subcutaneous fat and fascia up to a muscular layer, wound edges containing subcutaneous muscle were crushed with Kocher's forceps. Following hemeostasis, rabbits were infected by introducing 1 ml microbial suspension containing 1.5×10^9 Staphylococcus aureus into the wound.
All animals were divided into three groups each containing eight rabbits. In group I (test), the animals were treated with the fermented milk. For comparison, rabbits of Group II were treated with Rivanol (Chinosolfabrik, Germany). Group III consisted of control, untreated animals. Treatment was initiated on the third day postinfection. The fermented milk preparations were applied locally using liberally wetted, loosely placed napkins onto the wound followed by application of an aseptic dressing. Animals of the control group were maintained under identical conditions, and were subjected to daily wound sanitation and application of aseptic dressings.
The clinical course of wound healing was controlled based on a number of criteria—nature and amount of the discharge, terms for arresting a perifocal inflammatory reaction, necrolysis terms, emergence of granulations, epithelization, terms of a wound healing. At the same time, the surface area of the wound was measured; cytological, morphological studies of the wound edge and bottom were carried out; and bacteriological studies of wound discharge (prior and during the treatment) were performed. To determine the presence of microbes in sections, the preparations were Gram-Weigart stained. Bacteriological studies were carried out with regard to a rate and duration of Staphylococcus dissemination from a destruction focus. The following quantitative characteristics of dissemination were used: up to 25 colonies on a Petri dish=limited growth; up to 70 colonies=poor growth; up to 200 colonies=abundant growth; and more than 200 colonies=complete growth.
Material from a purulent wound was removed with a calcined and quenched standard loop, 3 mm in diameter, emulsified in 1 ml saline and then plated by 0.05 ml onto Petri dishes of plain agar. The plated material was placed in an incubator at 37° C. for 18-20 hours followed by Staphylococcus aureus colony count.

[1] = local application, treatment from third day postinfection

## CCOc1ccc2nc3cc(N)ccc3c(N)c2c1 [Rivanol]
[1]
  Edge epithelization advent: 15.1 days
  Full wound filling with granules: 18.9 days
  Full wound healing: 24.7 days
Local application, treatment from third day postinfection, 8 rabbits per group
  First granulation advent: 7.0 days
Local application, treatment from third day postinfection, column after first granulation advent
  Full wound healing, days (first column of that name): 13.5 days
Study of cicatrices after healing
  Nature of the cicatrix: a more coarse cicatricial tissue prevailed
